From ChEMBL document CHEMBL4418497, “Compositions and methods relating to inhibiting serine hyrdoxymethyltransferase 2 activity” (2016)

Tests used:
[1] = molecular target: T1, Serine hydroxymethyltransferase, mitochondrial (Homo sapiens) (UniProt P34897); assay: Inhibition of His-tagged human recombinant SHMT2 expressed in Escherichia coli BLR(DE3) assessed as reduction in NADPH level using L-serine, THF and NADP+ at 6.5 or 26.5 uM incubated for 5 mins by SHMT2-MTHFD coupled reaction based fluorescence assay relative to control
T1 sequence (whole entry): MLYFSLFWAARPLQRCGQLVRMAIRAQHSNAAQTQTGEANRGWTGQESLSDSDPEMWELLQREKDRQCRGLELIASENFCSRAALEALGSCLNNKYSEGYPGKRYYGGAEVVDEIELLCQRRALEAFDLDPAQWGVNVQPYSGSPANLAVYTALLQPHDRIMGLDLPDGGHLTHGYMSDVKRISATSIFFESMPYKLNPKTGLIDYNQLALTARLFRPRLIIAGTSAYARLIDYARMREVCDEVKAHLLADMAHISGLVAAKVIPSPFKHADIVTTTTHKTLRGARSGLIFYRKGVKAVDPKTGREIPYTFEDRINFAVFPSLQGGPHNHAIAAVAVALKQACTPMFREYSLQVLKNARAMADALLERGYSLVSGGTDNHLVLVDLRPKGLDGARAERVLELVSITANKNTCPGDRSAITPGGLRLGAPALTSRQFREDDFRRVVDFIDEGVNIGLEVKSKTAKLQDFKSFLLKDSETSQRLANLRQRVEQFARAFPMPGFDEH

[2] = molecular target: T2, Serine hydroxymethyltransferase, mitochondrial (Homo sapiens, UniProt P34897); assay: Inhibition of His-tagged human recombinant SHMT2 expressed in Escherichia coli BLR(DE3) assessed as reduction in NADPH level using L-serine, THF and NADP+ incubated for 5 mins by SHMT2-MTHFD coupled reaction based fluorescence assay; conditions: read-out: IC50
T2 sequence (P34897 whole entry): T1 sequence (whole entry)

Compound	inhibition [1]	IC50 [2]
COC(=O)[C@@H]1[C@H]2C[C@H]3c4[nH]c5ccccc5c4CCN3C[C@@H]2CC[C@@H]1O	57.4%	
COC(=O)[C@@H]1C(O)CC[C@H]2CN3CCc4c([nH]c5ccccc45)[C@@H]3C[C@@H]21 (stereo partly specified)	73.9%	
Nc1cc(-c2ccncc2)c[nH]c1=O	92.3%	
COC(=O)[C@@H]1OC(=O)C2OC23[C@]2(C)[C@H](O)CC4C(C)(C)[C@H](OC(C)=O)C[C@H](OC(C)=O)[C@]4(C)[C@H]2CC[C@@]13C (stereo partly specified)	81.8%	
CNC(=O)Oc1ccc2c(c1)[C@]1(C)CCN(C)[C@@H]1N2	55.9%	
CN1CCN(CCCN2c3ccccc3SC3C=CC(Cl)=CC32)CC1 (stereo unspecified)	61.6%	
Cc1onc(-c2c(Cl)cccc2Cl)c1NC(=O)Nc1ccc(N(C)C)c(Cl)c1C#N	97.1%	
COc1cc(OC)c2c(c1Cl)OC1(C2=O)C(O)=CC(=O)CC1C (stereo unspecified)	77.8%	
O=C(Nc1cccc2c(=O)cc(-c3nnn[nH]3)oc12)c1ccc(OCCCCc2ccccc2)cc1	65.5%	
NC(=O)NC1NC(=O)NC1=O (stereo unspecified)	58.2%	
CC(C(=O)Nc1cccc(/N=C/c2c(O)ccc3ccccc23)c1)c1ccccc1 (stereo unspecified)	60.1%	
Cc1[nH]c2ccc(O)cc2c1CCN	59%	
COc1ccc2c(c1O)-c1c(OC)c(OC)cc3c1C(C2)N(C)CC3 (stereo unspecified)	69.3%	
Brc1c(NC2=NCCN2)ccc2nccnc12	79%	
c1ccc2c(N3CCNCC3)cccc2c1	86.1%	
CCNc1cc(N)[n+](CC)c2[nH]nc(/N=C/c3cc(Cl)cc(Cl)c3O)c12	97%	
COc1cc2c(CCNC(C)=O)c[nH]c2cc1O	92.7%	
Cc1cccc(CCN2CCC(C(=O)c3ccc(NS(C)(=O)=O)cc3)CC2)n1	54.9%	
Cc1cccc(C)c1NC(=O)[C@@H]1CCCCN1C	60.1%	
CCC(N)C(O)c1ccc(O)c(O)c1 (stereo unspecified)	87%	
CS(=O)(=O)c1ccc2ccn(O)c2c1	60.3%	
Nc1nc(=O)c2nc(CNc3ccc(C(=O)N[C@@H](CCC(=O)O)C(=O)O)cc3)cnc2[nH]1	53.6%	
CC(C)C[C@H](N(C)C)C1(c2ccc(Cl)cc2)CCC1	62%	
Oc1ccc2[nH]cc(C3=CCNCC3)c2n1	73.2%	
CCCCCC(C)n1nc(O)c2c(C)cc(=O)[nH]c21 (stereo unspecified)		7080 nM
CC1=NC2c3c(oc(C(=O)NC4CCCC4)c3C)CCC2S1 (stereo unspecified)		4370 nM

Compound	inhibition [1]	IC50 [2]
Fc1ccc(COc2ccc(-c3nnco3)cc2)cc1	53.7%	
COc1ccc(NC2c3ncccc3C(=O)N2Cc2ccco2)cc1OC (stereo unspecified)		12600 nM
CCOC(=O)[C@H](CCc1ccccc1)N[C@H](C)C(=O)N1C2CCCCC2C[C@H]1CO (stereo partly specified)	53%	
CC(C)Cn1cc(NC(=O)NC(c2cccs2)C(C)C)c2ccccc2c1=O (stereo unspecified)		4070 nM
COc1ccc(OC)c(NC(=O)CSc2nc3ncccc3o2)c1		2140 nM
CC1=NC2c3c(oc(C(=O)NCC4CCCO4)c3C)CCC2S1 (stereo unspecified)		4070 nM
CN(C)N1C(=O)c2cccc3c(Br)ccc(c23)C1=O	69.8%	
CC(C)Cn1cc(NC(=O)Nc2ccc(F)cc2Cl)c2ccccc2c1=O		1860 nM
CC(=O)C1CC[C@H]2C3CC[C@H]4C[C@H](O)CC[C@]4(C)C3CC[C@]12C (stereo partly specified)	65.9%	
COCCCNc1nc(Nc2ccc(OC)cc2)c2cnn(C)c2n1		2340 nM
COc1cc(C2CC(=O)N3CN(C4CCCCC4)CSC3=C2C#N)ccc1O (stereo unspecified)		4370 nM
Cc1ccc(-c2cc(Nc3cccc4cccnc34)nc(C)n2)cc1		1510 nM
COCCN1CCn2c(nc3cc(NC(=O)NC4CCCCC4)ccc32)C1		5130 nM
CCCCC(=O)Nc1cc(F)c2nc(N3CCOCC3)ccc2c1		1580 nM
CNc1nc2[nH]c(=O)cc(O)c2s1		2510 nM
CC(C)Cn1cc(NC(=O)NCCN2CCC(C)CC2)c2ccccc2c1=O		3800 nM
Cc1cc(=O)c2c(=O)n(-c3nc4ccccc4s3)[nH]c2[nH]1		1620 nM
COc1ccc(-c2nc3c4nsnc4ccc3n2C)cc1Br		540 nM
CCC(C)NC(=O)Nc1cn(CC(C)C)c(=O)c2ccccc12 (stereo unspecified)		2340 nM
COc1ccc(NC(=O)N2CCn3c(C)ccc3C2C(C)C)cc1OC (stereo unspecified)		2690 nM
COC(=O)[C@@H](c1ccc2sccc2c1)c1ccccc1Cl	53.3%	
COc1ccc(N2C(=O)c3cccnc3C2Nc2ccc(OC)c(OC)c2)cc1 (stereo unspecified)		2950 nM
COc1ccc(Cl)cc1N(C)C(=O)Nc1cn(C)c(=O)c2ccccc12		6920 nM
COC(=O)/C=C(/Nc1cc(OC)ccc1OC)C(=O)OC	56.3%	
O=C(Nc1ccc2c(c1)OCCO2)N1Cc2ccccc2Oc2ncccc21		3090 nM
